Assay results from US8513310B2, “Cosmetic use of phytosphingosine as slimming agent and cosmetic compositions comprising phytosphingosine” (LVMH Recherche, priority 2002, dated 2013).

Tests used:
3T3-F442A adipocytes = experiment: Leptin secretion by murine 3T3-F442A adipocytes in culture (ELISA on supernatants); assay type: cell-based, mouse; conditions: for increase in the secretion of leptin / stimulation of the leptin secretion: D21, versus control; for leptin (pg/mL) Average in culture supernatants: mature 3T3-F442A adipocytes, control 1510
Protocol: The principle of the test is to control the secretion of leptin by the adipocytes.
Culture of 3T3 F442A Cells
The 3T3 F442A preadipocytes are shown at D0 in 35 mm Petri dishes (Corning) and placed in an oven at 37° C. under an air-CO2 atmosphere (95-5). The cells are cultivated in an Eagle minimum essential medium modified according to Dulbecco (glucose 4.50 g/l) (DMEM-GIBCO BRL) supplemented with 5% of calf serum (CS) (BIOMEDIA®) and 5% of foetal calf serum (GIBCO) during the growth phase. The medium is changed at D2 and D4.
At the cell confluence (at D7), the medium is changed:
The basic medium remains the same (DMEM) but is supplemented with 10% of foetal calf serum (FCS) and insulin (5 μg/mL) (SIGMA).
The medium is then changed at D9 and D11.
At D14, D16 and D18, a treatment is made with the composition the effectiveness of which on the leptin synthesis it is sought to verify.
The leptin secreted is determined by means of a sandwich-type Elisa technique re-running with a Quantikine M Mouse Leptin Immunoassay kit.
This ELISA determination uses recombined mouse leptin, expressed in E. coli and antibodies directed against recombinant mouse leptin.
The test uses a “sandwich” immunoenzymatic technique. The microplate wells are lined with a mouse leptin polyclonal antibody.
The standards, controls and samples are deposited in the wells and, at the same moment, all the leptin present binds to the immobilised antibody.
The bound leptin is then detected by a mouse anti-leptin antibody which is coupled to an enzyme peroxidase. A substrate solution is then added into the wells. The enzymatic reaction leads to a blue solution which turns yellow after addition of a quenching solution.
The intensity of the colour measured is proportional to the amount of leptin present. The reading of the optical density is done at 450 nm on the spectrophotometer.
The determination is obtained afterwards of the dose-response curves in relation to the measurement of natural leptin, parallel to the standard curves obtained with “recombinant” Quantikine M standards. The Quantikine M kit thus enables the relative mass values for the natural mouse leptin to be determined.
The optical density measured at 450 nm is proportional to the amount of antibody fixed, which is itself proportional to the amount of leptin present initially. The results are expressed in pg/mL of leptin present in the cell supernatants.
The samples were tested in triplicate.
Three compositions containing 0.25, 1 and 2 μg/mL, respectively, of phytosphingosine or of its hydrochloride, were tested.

[1] = test system: glycerol-3-phosphate dehydrogenase (G3PDH); experiment: G3PDH activity (lipogenesis) in 3T3 F442A preadipocytes treated with media conditioned by treated mature adipocytes; assay type: cell-based, mouse; conditions: 8 days, control 0.0016
Text: Thus, the mature adipocytes are firstly treated with PB+PS Secondly, the culture medium which is conditioned with these adipocytes is placed in contact with preadipocytes the maturation of which into adipocytes will be followed. A key enzyme in the process of synthesis of triglycerides is glycerol-3-phosphate dehydrogenase (G3PDH): its specific activity increases considerably during maturation and can thus be used as a precise and sensitive measurement of adipocyte conversion (Pairault J., Green H., Proc. Nat. Acad. Sci. USA, (1979) 76, 5138-42; Koekemoer T. C. et al, Int. J. Biochem. Cell Biol. (1995) 27, 625-32). […] Since G3PDH is a hydrosoluble enzyme, its activity is measured in the supernatant of the cell grindings, in the presence of appropriate substrates (NADH, TEA (triethanolamine)-EDTA, 50 mM, 1 mM). The specific activity is calculated from these determinations. […] Then, the percentage inhibition is calculated of the inhibition of the activity of the G3PDH produced by the substances compared to the controls. […] The consumption of NADH as a function of time is measured by spectrophotometry (KONTRON) at 340 nm. An absorbance variation/minute (Δ Abs/minute) can thus be calculated which corresponds to the initial rate of the enzymatic reaction. […] The total protein content is evaluated by the BCA method (Protein Assay Reagent-PIERCE LTD)

human adipocytes [2] = experiment: Release of glycerol by human adipocytes in culture (lipolysis); assay type: cell-based; conditions: for glycerol (pg/mL) release: 25 μg/mL
Text: Human adipocytes originating from a plasty of a person, which are marketed by ZEN-BIO (USA), were used at an advanced stage of the adipocyte maturation. The reception of these cells in culture took place 16 days after sowing. […] The properties of Coleus described above for the 3T3F442A murine adipocytes were first of all verified on these human cells: lipolytic activity by measurement of the release of glycerol and non-esterified fatty acids.

human adipocytes [3] = experiment: Release of non-esterified fatty acids by human adipocytes in culture; assay type: cell-based; conditions: dose of 6 ng/mL
Text: (§1) Human adipocytes originating from a plasty of a person, which are marketed by ZEN-BIO (USA), were used at an advanced stage of the adipocyte maturation. The reception of these cells in culture took place 16 days after sowing. They are cultivated in a specific medium ensuring their differentiation throughout the whole treatment. • D-16: sowing • D0: start of the treatment with the extract of Coleus (PB) and/or phytosphingosine (PS) • D6 to D18: determination of the various parameters. The properties of Coleus described above for the 3T3F442A murine adipocytes were first of all verified on these human cells: lipolytic activity by measurement of the release of glycerol and non-esterified fatty acids.

human adipocytes [4] = experiment: Leptin secretion by human adipocytes in culture; assay type: cell-based; conditions: most effective doses lower than for murine adipocytes
Text: as §1, with “parameters.” for “parameters. The properties of Coleus described above for the 3T3F442A murine adipocytes were first of all verified on these human cells: lipolytic activity by measurement of the release of glycerol and non-esterified fatty acids.”

[5] = 0.25 μg/mL, day D21 (7 days of treatment)

Compound	increase in the secretion of leptin (3T3-F442A adipocytes; 0.25 μg/mL)	leptin (pg/mL) Average in culture supernatants (3T3-F442A adipocytes; [5]) [pg/mL]	stimulation of the leptin secretion (3T3-F442A adipocytes; 1 μg/mL)	leptin (pg/mL) Average in culture supernatants (3T3-F442A adipocytes; 1 μg/mL, day D21) [pg/mL]	stimulation of the leptin secretion (3T3-F442A adipocytes; 2 μg/mL)	leptin (pg/mL) Average in culture supernatants (3T3-F442A adipocytes; 2 μg/mL, day D21) [pg/mL]	O.D. (nmoles NAD+) average ([1]; PB 0, PS 0.5 μg/mL) [nmoles NAD+]	O.D. (nmoles NAD+) average ([1]; PB 0, PS 1 μg/mL) [nmoles NAD+]	glycerol (pg/mL) release (human adipocytes [2]; day 3, control 73.78) [pg/mL]	glycerol (pg/mL) release (human adipocytes [2]; day 6, control 120.8) [pg/mL]	glycerol (pg/mL) release (human adipocytes [2]; day 9, control 147.2) [pg/mL]	glycerol (pg/mL) release (human adipocytes [2]; day 12, control 198.4) [pg/mL]	glycerol (pg/mL) release (human adipocytes [2]; day 15, control 196.3) [pg/mL]	glycerol (pg/mL) release (human adipocytes [2]; day 18, control 230.9) [pg/mL]	glycerol (pg/mL) release (human adipocytes [2]; day 21, control 276.6) [pg/mL]	glycerol (pg/mL) release (human adipocytes [2]; day 23, control 238.9) [pg/mL]	release of glycerol (human adipocytes [2]; dose of 6 ng/mL)	release of non-esterified fatty acids (human adipocytes [3])	leptin secretion in human adipocytes (human adipocytes [4])
CCCCCCCCCCCCCC[C@@H](O)[C@@H](O)[C@@H](N)CO.Cl [Phytosphingosine hydrochloride]	+18%	1789	+52%	2301.3	+26%	1907.9													
CCCCCCCCCCCCCCC(O)C(O)[C@@H](N)CO (stereo in doubt) [phytosphingosine, (2S,3S,4R)-2-amino-1,3,4-octadecanetriol]	more than 18%	1789		1563.6		1428.8	0.0014	0.00165	174.4	196.2	302.9	416.4	460.6	659.8	777.1	687	responsible for a release of glycerol with time	without concomitant release of non-esterified fatty acids	induces an increase of leptin secretion
